Source: US8703813B2, “Compound with spiro chiral carbon backbone, preparation method thereof, and pharmaceutical composition containing the same” (SNU R & DB Foundation, priority 2008, dated 2014)

How the values were obtained:
[1] = test system: C3H/10T1/2 cells; assay: Adipocyte differentiation inhibitory ability (Oil Red O staining); type: cell-based, mouse; settings: C3H/10T1/2, 10 μg/ml
Procedure: C3H/10T1/2 cells, which are mouse mesenchymal progenitor cells purchased from ATCC, were diluted in DMEM (Dulbecco's Modified Eagle Medium) medium containing 5.958 g/L HEPES, 3.7 g/L sodium bicarbonate and 10% FBS (fetal bovine serum), and cultured in 24-well culture plates at a density of 4×10^4 cells/well, in the presence of 5% CO2 at 37° C. for 2 days. When the cultured cells were grown to 90˜100% confluency in the culture plates, the cells were cultured in DMEM medium containing 10% FBS, to which 5μ/ml insulin, 1 μM dexamethason, and 5 μM troglitazone were added, in the presence of 5% CO2 at 37° C. for 8 days, to induce differentiation into adipocyte. The medium was exchanged every other day during differentiation. The C3H/10T1/2 cell line, in which differentiation into the adipocyte was induced, was fixed with 3.7% formaldehyde at room temperature for 30 minutes. An oil Red O solution dissolved in isopropanol at a concentration of 0.5% was diluted in distilled water at a ratio of 6:4, filtered through a 0.2 μm filter, and poured to the fixed cell line, which was stained for 1 hour. In order to observe only the cells differentiated into the adiopocyte, the dye solution was removed and the cells were washed with distilled water two times.
116V specimen extracted from sponge was dissolved in DMSO solvent, and allowed to treat C3H/10T1/2 cell lines, which are mouse mesenchymal progenitor cells, at concentrations of 1, 2.5, 5, 10, and 20 μg/ml. […] Then, after specimens of the compound 1 (1163), the compound 2 (1162), the compound 3 (1161), and the compound 4 (1164), which were purely separated from the 116V and 116VI species were obtained, the same experiment was performed. […] Remarkable cytotoxicity was not observed in each of the specimens during differentiation of adipocytes (FIG. 8).

[2] = Solubility in organic solvents; type: physicochemical
[3] = test system: C3H/10T1/2 cells; assay: Osteoblast formation activity (calcium deposition assay, Alizarin Red S); type: cell-based, mouse; settings: for osteoblast differentiation ability: C3H/10T1/2, calcium deposition; for concentration of maximum osteoblast differentiation activity: C3H/10T1/2, tested 1-20 ug/ml; for concentration at which cytotoxicity was observed: C3H/10T1/2 during osteoblast differentiation
Procedure: C3H/10T1/2 cells, which are mouse mesenchymal progenitor cells purchased from ATCC, were diluted in DMEM (Dulbecco's Modified Eagle Medium) medium containing 5.958 g/L HEPES, 3.7 g/L sodium bicarbonate, and 10% FBS (fetal bovine serum), and cultured in 24-well culture plates at a density of 4×10^4 cells/well, in the presence of 5% CO2 at 37° C. for 2 days. The cultured cells were grown to 90˜100% confluency in the culture plates, the cells were cultured in DMEM medium containing 10% FBS, to which 10 mM of β-glycerophosphate and 50μ/ml of ascorbic acid were added, in the presence of 5% CO2 at 37° C. for 6 days, to induce differentiation into osteoblast. The medium was exchanged every other day during differentiation. The C3H/10T1/2 cell line, in which differentiation into the osteoblast was induced, was washed with PBS (Phosphate Buffered Saline) once, and fixed with 70% ethanol at 20° C. for 1 hour. The cells after fixing were washed with cold PBS three times, and stained with 40 mM Alizarin Red S dye solution at room temperature for 20 minutes. The dye solution was removed and the cells were washed with distilled water three times in order to selectively observe only the cells differentiated into the osteoblast.
An aliquot 116V and an aliquot 116VI extracted and partitioned from sponges are dissolved in a DMSO solvent, and used to treat the C3H/10T1/2 cell line, mesenchymal progenitor cells, at concentrations of 1, 2.5, 5, 10, and 20 ug/ml. […] Since then, the same experiment was performed on the compound (1163), the compound 2 (1162), the compound 3 (1161), and the compound 4 (1164), which were purely separated from the aliquots 116V and 116VI, and as a result, it could be confirmed that the osteoblast differentiation ability was increased in the compounds 1, 3, and 4. […] To study a mechanism with respect to osteoblast differentiation ability, the C3H/10T1/2 cell lines were treated with the compound 1 and the compound 4 for 6 days, respectively. […] Also, the C3H/10T1/2 cell lines were treated with the compound 1 and the compound 4 for 6 days, respectively. […] Furthermore, it could be ascertained that combining of Runx2 and TAZ proteins was increased by treatment of the compounds and thus the activity of Runx2-meditated transcription was increased. The compound 5, which is an ester derivative of the compound 1 (1163), was synthesized in order to prepare a material having more excellent bioactivity, and the structure of the compound 5 obtained thus was determined. […] Therefore, the compounds of the present invention and derivatives thereof are expected to promote the differentiation of the osteoblast and thus play an innovative role in treatment of osteoporosis.

[4] = test system: Runx2, Osteocalcin, Msx2; assay: Real time PCR of osteoblast differentiation mark factors; type: cell-based, mouse; settings: C3H/10T1/2 treated for 6 days, RTPCR
Procedure: (§1) An aliquot 116V and an aliquot 116VI extracted and partitioned from sponges are dissolved in a DMSO solvent, and used to treat the C3H/10T1/2 cell line, mesenchymal progenitor cells, at concentrations of 1, 2.5, 5, 10, and 20 ug/ml. […] Since then, the same experiment was performed on the compound (1163), the compound 2 (1162), the compound 3 (1161), and the compound 4 (1164), which were purely separated from the aliquots 116V and 116VI, and as a result, it could be confirmed that the osteoblast differentiation ability was increased in the compounds 1, 3, and 4. […] To study a mechanism with respect to osteoblast differentiation ability, the C3H/10T1/2 cell lines were treated with the compound 1 and the compound 4 for 6 days, respectively. […] Also, the C3H/10T1/2 cell lines were treated with the compound 1 and the compound 4 for 6 days, respectively. […] Furthermore, it could be ascertained that combining of Runx2 and TAZ proteins was increased by treatment of the compounds and thus the activity of Runx2-meditated transcription was increased. The compound 5, which is an ester derivative of the compound 1 (1163), was synthesized in order to prepare a material having more excellent bioactivity, and the structure of the compound 5 obtained thus was determined. […]

[5] = test system: Runx2 and TAZ; assay: Western blot of osteoblast differentiation mark factors; type: cell-based, mouse; settings: C3H/10T1/2 treated for 6 days
Procedure: as §1

Compound	adipocyte differentiation ability [1]	Solubility [2]	osteoblast differentiation ability [3]	concentration of maximum osteoblast differentiation activity [3] [µg/mL]	concentration at which cytotoxicity was observed [3] [ng/mL]	transcription degree of differentiation mark factors (Runx2, Osteocalcin, Msx2, etc.) [4]	protein expression of Runx2 and TAZ [5]
CC(=O)OCC1=C[C@@]2(C=C(C)C[C@H](/C=C(\C)CCC=C(C)C)O2)O[C@H]2C=C(C)C(=O)C[C@@H]12 [Compound 2]	remarkably decreased	Easily Dissolved in Organic Solvent of Acetone, Methanol, DMSO, etc.					
CC(=O)O[C@@H]1C[C@H]2C(CO)=C[C@@]3(C=C(C)C[C@H](/C=C(\C)CCC=C(C)C)O3)O[C@H]2C=C1C [Compound 3]	remarkably decreased	Easily Dissolved in Organic Solvent of Acetone, Methanol, DMSO, etc.	increased	2.5	> 2500		
CC(=O)O[C@H]1C[C@H]2C(CO)=C[C@@]3(C=C(C)C[C@H](/C=C(\C)CCC=C(C)C)O3)O[C@H]2C=C1C [Compound 4]	remarkably decreased	Easily Dissolved in Organic Solvent of Acetone, Methanol, DMSO, etc.	increased	5	> 5000	remarkably increased	increased
CCCC(=O)OCC1=C[C@@]2(C=C(C)C[C@H](/C=C(\C)CCC=C(C)C)O2)O[C@H]2C=C(C)C(=O)C[C@@H]12 [Compound 5]			promoted differentiation of the osteoblast in a similar degree as that of the compound 1				
CC1=C[C@@]2(C=C(CO)[C@@H]3CC(=O)C(C)=C[C@@H]3O2)O[C@@H](/C=C(\C)C/C=C/C(C)(C)O)C1 [Compound 9]		Easily Dissolved in Organic Solvent of Acetone, Methanol, DMSO, etc.					
C=C(C)C(O)CC/C(C)=C/[C@H]1CC(C)=C[C@@]2(C=C(CO)[C@@H]3CC(=O)C(C)=C[C@@H]3O2)O1 (some centres unmarked) [Compound 10]		Easily Dissolved in Organic Solvent of Acetone, Methanol, DMSO, etc.					
